# In patent US8933024B2, “Azolopyridin-3-one derivatives as inhibitors of lipases and phospholipases” (Sanofi, priority 2010, dated 2015):
# Target: endothelial lipase (EL) (Homo sapiens (Human), UniProt Q9Y5X9)
# Assay: Test for inhibition of EL (assay for EL activity)
# Assay type: biochemical
# Settings: phospholipase-specific Bodipy phosphocholine substrate; 37° C. for 90 minutes; enzyme from conditioned medium of recombinant cell lines (CHO, HEK293)
# From the text: Test for inhibition of EL:
# EL is released as a secretory protein by recombinant cell lines (CHO, HEK293) in high concentration into cell culture medium (conditioned medium). This was used as an enzyme solution after concentration.
# For characterization of the enzymatic activity of endothelial lipase and the effect of inhibitors, the phospholipase-specific substrate 1,2-bis(4,4-difluoro-5,7-dimethyl-4-bora-3a,4a-diaza-s-indacene-3-undecanoyl)-sn-glycero-3-phosphocholine (manufacturer: Molecular Probes) was used. Hydrolysis of the A1 ester bond of this phospholipid by the enzyme releases the fluorescent dye Bodipy, which can be detected by measuring the fluorescence after separation by thin-layer chromatography on an HPTLC plate (silica gel 60, Merck) or directly in the reaction vessel. To prepare the substrate solution, 100 μg of 1,2-bis(4,4-difluoro-5,7-dimethyl-4-bora-3a,4a-diaza-s-indacene-3-undecanoyl)-sn-glycero-3-phosphocholine (manufacturer: Molecular Probes) were dissolved in 100 μl of DMSO and taken up in 2.4 mg of tripalmitin (Sigma) in 393 μl of chloroform which contained 20 mg/ml DOP—choline (1,2-dioleoyl-sn-glycero-3-phosphocholine). 39.3 μl of this lipid mixture were transferred into a fresh reaction vessel and the solvent was evaporated off. The lipid mixture was dissolved by sonicating twice in 4 ml of 200 mM TRIS-HCl, 150 mM sodium chloride, pH=7.4. The subsequent enzyme reaction was effected at 37° C. for 90 minutes. For this purpose, 20 μl of the substrate solution were incubated with 2 μl of inhibitor of appropriate concentration (dissolved in 10% DMSO; 10% DMSO solution was used as a control) and 2 μl of enzyme solution (conditioned medium). Thereafter, 4 μl of the test mixture were applied to an HPTLC plate (silica gel 60, Merck) and the fluorescent dye released was separated for detection with an eluent (diethyl ether:petroleum:acetic acid [78:22:1]). After the eluent had been evaporated off, the plate was read in a fluorescence scanner.
# Sequence of endothelial lipase (EL) (Q9Y5X9 21-500): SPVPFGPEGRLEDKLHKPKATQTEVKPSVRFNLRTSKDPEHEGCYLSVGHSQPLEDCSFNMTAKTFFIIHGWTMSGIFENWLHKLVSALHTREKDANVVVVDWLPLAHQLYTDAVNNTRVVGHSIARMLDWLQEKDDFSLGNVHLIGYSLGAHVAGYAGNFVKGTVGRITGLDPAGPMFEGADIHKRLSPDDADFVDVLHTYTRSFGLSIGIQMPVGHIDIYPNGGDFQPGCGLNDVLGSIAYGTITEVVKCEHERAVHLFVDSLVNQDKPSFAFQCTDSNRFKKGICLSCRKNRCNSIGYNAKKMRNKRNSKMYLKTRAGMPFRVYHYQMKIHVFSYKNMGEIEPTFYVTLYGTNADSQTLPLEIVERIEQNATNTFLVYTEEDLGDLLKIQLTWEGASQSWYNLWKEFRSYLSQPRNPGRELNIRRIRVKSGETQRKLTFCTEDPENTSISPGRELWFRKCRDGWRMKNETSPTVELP
row,Compound,IC50 [nM]
1,"COc1cc(CNC(=O)n2sc3ncccc3c2=O)cc(OC)c1OC [Example 3, 3-Oxo-3H-isothiazolo[5,4-b]pyridine-2-carboxylic acid 3,4,5-trimethoxy-benzylamide]",926
2,"COc1cc(C(C)NC(=O)n2sc3ncccc3c2=O)cc(OC)c1OC (stereo not drawn) [Example 4, 3-Oxo-3H-isothiazolo[5,4-b]pyridine-2-carboxylic acid [1-(3,4,5-trimeth-oxy-phenyl)-ethyl]-amide]",40
3,"CC(NC(=O)n1sc2ncccc2c1=O)c1ccc2c(c1)OCCO2 (stereo not drawn) [Example 5, 3-Oxo-3H-isothiazolo[5,4-b]pyridine-2-carboxylic acid [1-(2,3-dihydro-benzo[1,4]dioxin-6-yl)-ethyl]-amide]",200
4,"O=C(NCc1ccccc1)n1sc2ncccc2c1=O [Example 18, 3-Oxo-3H-isothiazolo[5,4-b]pyridine-2-carboxylic acid benzylamide]",69
5,"COc1ccc(OC)c(CNC(=O)n2sc3ncccc3c2=O)c1 [Example 28, 3-Oxo-3H-isothiazolo[5,4-b]pyridine-2-carboxylic acid 2,5-dimethoxy-benzylamide]",107
6,"Cc1cc(C)c(CNC(=O)n2sc3ncccc3c2=O)c(C)c1 [Example 29, 3-Oxo-3H-isothiazolo[5,4-b]pyridine-2-carboxylic acid 2,4,6-trimethyl-benzylamide]",4290
7,"COc1ccc(C(C)NC(=O)n2sc3ncccc3c2=O)cc1OC (stereo not drawn) [Example 37, 3-Oxo-3H-isothiazolo[5,4-b]pyridine-2-carboxylic acid [1-(3,4-dimethoxy-phenyl)-ethyl]-amide]",148
8,"COc1cccc(CNC(=O)n2sc3ncccc3c2=O)c1 [Example 38, 3-Oxo-3H-isothiazolo[5,4-b]pyridine-2-carboxylic acid 3-methoxy-benzyl-amide]",182
9,"Cc1cccc(C)c1CNC(=O)n1sc2ncccc2c1=O [Example 39, 3-Oxo-3H-isothiazolo[5,4-b]pyridine-2-carboxylic acid 2,6-dimethyl-benz-ylamide]",120
10,"CC(C)C(NC(=O)n1sc2ncccc2c1=O)c1ccc2c(c1)OCCCO2 (stereo not drawn) [Example 46, 3-Oxo-3H-isothiazolo[5,4-b]pyridine-2-carboxylic acid [1-(3,4-dihydro-2H-benzo[b][1,4]dioxepin-7-yl)-2-methyl-propyl]-amide]",28
11,"CSc1ccc(CNC(=O)n2sc3ncccc3c2=O)cc1 [Example 55, 3-Oxo-3H-isothiazolo[5,4-b]pyridine-2-carboxylic acid 4-methylsulfanyl-benzylamide]",116
12,"CSc1cccc(CNC(=O)n2sc3ncccc3c2=O)c1 [Example 59, 3-Oxo-3H-isothiazolo[5,4-b]pyridine-2-carboxylic acid 3-methylsulfanyl-benzylamide]",264

# More lines, now with the values ahead:
row,IC50 [nM],Compound
1,216,"COCCOc1ccc(CNC(=O)n2sc3ncccc3c2=O)cn1 [Example 114, 3-Oxo-3H-isothiazolo[5,4-b]pyridine-2-carboxylic acid [6-(2-methoxy-ethoxy)-pyridin-3-ylmethyl]-amide]"
2,1380,"COc1cc(CNC(=O)n2sc3ncccc3c2=O)ccc1OCCN(C)C [Example 115, 3-Oxo-3H-isothiazolo[5,4-b]pyridine-2-carboxylic acid 4-(2-dimethylamino-ethoxy)-3-methoxy-benzylamide]"
3,1590,"CC(C)Oc1ncccc1CNC(=O)n1sc2ncccc2c1=O [Example 116, 3-Oxo-3H-isothiazolo[5,4-b]pyridine-2-carboxylic acid (2-isopropoxy-pyridin-3-ylmethyl)-amide]"
4,230,"CCOc1ccc(CNC(=O)n2sc3ncccc3c2=O)cc1OC [Example 129, 3-Oxo-3H-isothiazolo[5,4-b]pyridine-2-carboxylic acid 4-ethoxy-3-meth-oxy-benzylamide]"
5,85,"CN(C)Cc1ccc(CNC(=O)n2sc3ncccc3c2=O)cc1 [Example 130, 3-Oxo-3H-isothiazolo[5,4-b]pyridine-2-carboxylic acid 4-dimethylamino-methyl-benzylamide]"
6,391,"CC(NC(=O)n1sc2ncccc2c1=O)c1ccc(N2CCOCC2)cc1 (stereo not drawn) [Example 134, 3-Oxo-3H-isothiazolo[5,4-b]pyridine-2-carboxylic acid [1-(4-morpholin-4-yl-phenyl)-ethyl]-amide]"
7,517,"COCCN1CCC(CNC(=O)n2sc3ncccc3c2=O)CC1 [Example 142, 3-Oxo-3H-isothiazolo[5,4-b]pyridine-2-carboxylic acid [1-(2-methoxy-ethyl)-piperidin-4-ylmethyl]-amide]"
8,1580,"Cc1ccccc1CNC(=O)n1sc2ncccc2c1=O [Example 156, 3-Oxo-3H-isothiazolo(5,4-b]pyridine-2-carboxylic acid 2-methyl-benzyl-amide]"
9,80,"COCCOc1ccc([C@@H](C)NC(=O)n2sc3ncccc3c2=O)cc1OC [Example 161, 3-Oxo-3H-isothiazolo[5,4-b]pyridine-2-carboxylic acid {(R)-1-[3-methoxy-4-(2-methoxy-ethoxy)-phenyl]-ethyl}-amide]"
